Laboratory results published in US5763438A, “2-acylaminopropanol compound and medical composition” (Seikagaku Corporation, priority 1994, dated 1998).
Read-outs that look alike come from different tables or passages of the source.

Experiments:
[1] = system: A/PR/8/34 strain influenza virus; experiment: microbe, parasite or virus in culture; assay type: cell-based, influenza virus A/PR/8/34; conditions: for EC50: unidentified influenza virus, PR/8, MDCK, 72 h, read-out: ED50 (concentration at which the cytopathic effect derived from virus was reduced by 50% as compared with a control)
[2] = Cytotoxicity to uninfected MDCK cells (MTT method); conditions: dog, mdck cells
Experimental: (§1) Further, in order to evaluate the cytotoxicities to the MDCK cells of the compounds of the present invention, these compounds at the same concentration were added to cells which were not infected with virus, and the survival rate after carrying out culture in the same manner was examined by the MTT method, which is also shown in Table 1.

[3] = system: A/PR/8/34 strain influenza virus; experiment: microbe, parasite or virus in culture; assay type: cell-based, influenza virus A/PR/8/34; conditions: for inhibition at 10 µM: unidentified influenza virus, PR/8, MDCK, 72 h, read-out: Virus growth inhibition (%)
B16 melanoma cells = experiment: Glycolipid biosynthesis-accelerating action in B16 melanoma cells (uptake of 14C-galactose into GSL fraction); assay type: cell-based; conditions: for Uptake of 14C-galactose into GSL fraction: 24 hours, control 6,100; for Acceleration of biosynthesis of glycolipids including ganglioside (in words): Table 2
Experimental: B16 melanoma cells derived from neuroectoderm were put into a culture plate with 12 wells in an amount of 2×10^5 cells/well and cultured for 24 hours in Dulbecco modified Eagle's media containing 10% bovine fetal serum. Thereafter, the media were exchanged with the same culture broths containing 2-acylaminopropanol compounds shown in Table 2, and ^14 C-galactose was added thereto. After 24 hours, the media were removed, the cells were washed with 1 ml of a phosphate buffer containing 0.02% EDTA, 1 ml of 0.25 % trypsin was added, and the mixtures were left to stand at 37° C. for 5 minutes. The cells were recovered by using the same culture broths and washed with a phosphate buffer, and then masses of the cells were obtained. 4 ml of methanol and chloroform were added successively to the masses of the cells to extract all GSL, followed by evaporation to dryness. Next, after this all GSL was suspended in 1 ml of water, the suspensions were dialyzed to water for 2 days to completely remove low molecules such as ^14 C-galactose, etc. The radioactivities of the GSL fractions thus obtained were measured by a liquid scintillation counter. A control is a result of carrying out an experiment in the same manner by exchanging the medium with the same amount of a culture broth not containing the compound of the present invention.

virus = conditions: Seikagaku vol. 65(8), p. 695 (1993); cited from earlier work
[4] = J. Lipid Res., Vol. 32, 713-722 (1991); cited from earlier work
MDCK cells = experiment: Cytotoxicity to uninfected MDCK cells (MTT method); conditions: 10 μM; MDCK cells
Experimental: as §1

[5] = Mus musculus, B16, 24 h, 10 μM, control 100, read-out: Glycolipid biosynthesis acceleration (%)
[6] = 10 μM, MDCK cells, 3 days at 37° C., control 80.0

Structure (SMILES)	viability at 72 h, 10 µM [2] [%]	inhibition at 10 µM [3] [%]	Uptake of 14C-galactose into GSL fraction (B16 melanoma cells; 10 μM)	activity at 10 µM (B16 melanoma cells; [5]) [%]	Acceleration of biosynthesis of glycolipids including ganglioside (in words) (B16 melanoma cells)	Cytopathic effect (%) [1, 6] [%]	EC50 [1] [µM]	other results
CCCCCCCCCC(=O)N[C@H](CN1CCOCC1)[C@H](O)c1ccccc1 [D-threo-PDMP, reference compound]	60 to 80	97.1	–	–	–	–	–	Cytopathic effect (%) [1]: 44.8%
CCCCCCCCCC(=O)N[C@@H](CN1CCC(O)C1)[C@@H](O)c1ccccc1 (some centres unmarked) [Compound 3]	–	–	9,380 cpm/mg protein	161	significantly accelerate biosynthesis of glycolipids including ganglioside	–	–	–
CCCCCCCCCC(=O)N[C@@H](CN(CC)CC)[C@H](O)c1ccccc1 (relative stereo) [drawing 10 (DL-erythro), 2-decanoylamino-3-diethylamino-1-phenyl-1-propanol]	100	88.5	–	–	–	9.9	1.5	–
CCCCCCCCCC(=O)N[C@@H](CN1CCC(O)CC1)[C@@H](O)c1ccccc1 [drawing 13 (L-threo)]	–	–	9,670 cpm/mg protein	159	significantly accelerate biosynthesis of glycolipids including ganglioside	–	–	–
CCCCCCCCCC(=O)N[C@@H](CN1CCCCC1)[C@H](O)c1ccccc1 (relative stereo) [drawing 8 (DL-erythro), 2-decanoylamino-1-phenyl-3-piperidino-1-propanol]	80 to 100	99.6	–	–	–	7.8	–	–
CCCCCCCCCC(=O)N[C@@H](CNC1CCC(O)CC1)[C@@H](O)c1ccccc1 (some centres unmarked) [Compound 4]	–	–	–	–	significantly accelerate biosynthesis of glycolipids including ganglioside	–	–	Uptake of 14C-galactose into GSL fraction (B16 melanoma cells; 5 μM): 9,740 cpm/mg protein; activity at 5 µM (B16 melanoma cells; Mus musculus, B16, 24 h, 5 μM, control 100, read-out: Glycolipid biosynthesis acceleration (%)): 160%
CCCCCCCCCC(=O)N[C@@H](CN1CCN(C)CC1)[C@@H](O)c1ccccc1 [Compound 2]	–	–	10,300 cpm/mg protein	169	significantly accelerate biosynthesis of glycolipids including ganglioside	–	–	–
CCCCCCCCCC(=O)NC(CN1CCOCC1)C(O)c1ccccc1 (centres unmarked) [PDMP, 1-phenyl-2-decanoylamino-3-morpholino-1-propanol]	–	–	–	–	–	–	–	Antiviral activity (in words) (virus): has an antiviral activity; Passing a blood-brain barrier (in words) [4]: can pass a blood-brain barrier
CCCCCCCCCC(=O)NC(CN1CCCCC1CO)C(O)c1ccccc1 (mixture of isomers) [drawing 11 (Mixture of isomers), 2-decanoylamino-3-(2-(hydroxymethyl)-piperidino)-1-phenyl-1-propanol]	80 to 100	99.7	–	–	–	3.1	1.5	–
CCCCCCCCCC(=O)N[C@H](CN1CCC(O)CC1)[C@H](O)c1ccccc1 (relative stereo) [drawing 9 (DL-threo), 2-decanoylamino-3-(4-hydroxypiperidino)-1-phenyl-1-propanol]	100	87.3	–	–	–	14.2	5.4	–
CCCCCCCCCC(=O)N[C@@H](CN1CCC(O)CC1)[C@H](O)c1ccccc1 (relative stereo) [drawing 9 (DL-erythro), 2-decanoylamino-3-(4-hydroxypiperidino)-1-phenyl-1-propanol]	100	100	–	–	–	–	5	Cytopathic effect (%) [1]: 0%; Cytotoxicity (in words) (MDCK cells): cytotoxicity at this concentration was not observed at all; Suppression of growth of influenza virus (in words) [3]: completely suppressed growth of influenza virus
CCCCCCCCCC(=O)N[C@H](CN1CCCCC1)[C@H](O)c1ccccc1 (relative stereo) [drawing 8 (DL-threo), 2-decanoylamino-1-phenyl-3-piperidino-1-propanol]	80 to 100	93.9	–	–	–	40.0	–	–
CCCCCCCCCC(=O)N[C@@H](CN1CCC(O)CC1)[C@H](O)c1ccccc1 [drawing 13 (D-erythro)]	–	–	11,470 cpm/mg protein	188	significantly accelerate biosynthesis of glycolipids including ganglioside	–	–	–
